{"source": "patent US6180599A", "about": "“Pharmaceutical composition, containing medium-chain fatty acids as active ingredients, for dental caries and periodontal disease” (priority 1997, dated 2001)", "key": {"L. casei ATCC 4646": {"tested_on": "L. casei ATCC 4646", "experiment": "Inhibitory effect on extracellular polysaccharide synthesis, standard strain", "type": "cell-based, Lactobacillus casei", "conditions": "1 mM", "method": "(§1) In order to identify the effect by which medium-chain fatty acids inhibit plaque matrix formation, inhibitory effect and concentration of extracellular polysaccharide synthesis were determined in seven kinds of standard cariogenic plaque bacteria. Also, the inhibitory effect of extracellular polysaccharide synthesis for 20 kinds of cariogenic plaque bacteria, separated from the human oral cavity, was measured. Liquid culture media used were: Todd-Hewitt broth of Streptococcus, Lactobacilli MRS broth of Lactobacillus and Brain Heart Infusion broth of Actinomyces. 0.1 ml of bacterial (or cell) suspension (OD600 =0.5) of each bacteria was inoculated to 5.9 ml of culture media containing 1 mM of medium-chain fatty acids and 2% of glucose, and was cultured for 24^~ 48 hours in 10% CO2 incubator. After culturing, the resultant was centrifuged to precipitate at 5,000×g for 15 minutes, then soluble extracellular polysaccharide was separated and purified from the supernatant and insoluble extracellular polysaccharide from the cell pellet, and then these were quantified."}, "L. casei ATCC 27216": {"tested_on": "L. casei ATCC 27216", "experiment": "Inhibitory effect on extracellular polysaccharide synthesis, standard strain", "type": "cell-based, Lactobacillus casei", "conditions": "1 mM", "method": "as §1"}, "[1]": {"tested_on": "cariogenic plaque bacteria separated from human oral cavities", "experiment": "Inhibitory effect of bacterial growth, bacteria separated from human oral cavities", "type": "cell-based", "conditions": "1 mM lauric acid as salt form; neutral and acidic pH; FIG. 4", "method": "In order to evaluate how medium-chain fatty acids influence bacterial growth of cariogenic plaque bacteria, the influence on each bacteria was evaluated after selecting seven kinds of bacterial strains as standard bacteria among cariogenic plaque bacteria. […] The results that medium-chain fatty acids have on influencing bacterial growth of cariogenic plaque bacteria is shown in FIG. 3. And the result of measuring inhibitory effect of bacterial growth of 20 kinds of cariogenic plaque bacteria separated from the human oral cavities is shown in FIG. 4."}, "[2]": {"tested_on": "cariogenic plaque bacteria", "experiment": "Inhibitory effect on extracellular polysaccharide synthesis (summary)", "type": "cell-based, Streptococcus, Lactobacillus and Actinomyces", "conditions": "1 mM", "method": "as §1, with “quantified. So the experimental results that represent inhibitory effect of medium-chain fatty acids upon extracellular polysaccharide synthesis, are shown in table 1, 2, 3 and 4.” for “quantified.”"}, "A. viscosus ATCC 15987": {"tested_on": "A. viscosus ATCC 15987", "experiment": "Inhibitory effect on extracellular polysaccharide synthesis, standard strain", "type": "cell-based", "conditions": "1 mM", "method": "as §1"}, "S. sanguis 10556": {"tested_on": "S. sanguis 10556", "experiment": "Inhibitory effect on extracellular polysaccharide synthesis, standard strain", "type": "cell-based", "conditions": "1 mM", "method": "as §1"}}, "data": [{"smiles": "CCCCCCCCCCCC(=O)[O-].[Na+]", "note": "[C12, sodium laurate]", "values": [{"measurement": "Extracellular polysaccharide, insoluble", "setting": "L. casei ATCC 4646; 2% glucose, 24-48 hours, control 5.3 ± 0.5", "value": "0.2 ± 0.2", "unit": "µg/mL"}, {"measurement": "Extracellular polysaccharide, soluble", "setting": "L. casei ATCC 4646; 2% glucose, 24-48 hours, control 43.6 ± 7.0", "value": "19.2 ± 2.9", "unit": "µg/mL"}, {"measurement": "Inhibitory rate, soluble", "setting": "L. casei ATCC 4646; vs control", "value": 56, "unit": "%"}, {"measurement": "Extracellular polysaccharide, insoluble", "setting": "L. casei ATCC 27216; 2% glucose, 24-48 hours, control 5.9 ± 0.4", "value": "2.0 ± 0.1", "unit": "µg/mL"}, {"measurement": "Extracellular polysaccharide, soluble", "setting": "L. casei ATCC 27216; 2% glucose, 24-48 hours, control 67.3 ± 4.5", "value": "19.0 ± 2.1", "unit": "µg/mL"}, {"measurement": "Inhibitory rate, soluble", "setting": "L. casei ATCC 27216; vs control", "value": 72, "unit": "%"}, {"measurement": "inhibition of bacterial growth (in words)", "setting": "[1]", "value": "more remarkable effects even at low concentration than that of the control group"}, {"measurement": "inhibitory effect of extracellular polysaccharide synthesis (in words)", "setting": "[2]", "value": "inhibited in the highest degree"}, {"measurement": "inhibitory effect of extracellular polysaccharide synthesis, sequence", "setting": "[2]; ranking", "value": "sodium laurate>sodium capriate>sodium nonanoate"}, {"measurement": "Extracellular polysaccharide, insoluble", "setting": "A. viscosus ATCC 15987; 2% glucose, 24-48 hours, control 2.1 ± 0.2", "value": "0.2 ± 0.1", "unit": "µg/mL"}, {"measurement": "Extracellular polysaccharide, soluble", "setting": "A. viscosus ATCC 15987; 2% glucose, 24-48 hours, control 222.8 ± 3.3", "value": "25.3 ± 1.7", "unit": "µg/mL"}, {"measurement": "Inhibitory rate, soluble", "setting": "A. viscosus ATCC 15987; vs control", "value": 89, "unit": "%"}, {"measurement": "Extracellular polysaccharide, soluble", "setting": "S. sanguis 10556; 2% glucose, 24-48 hours, control 25.9 ± 4.3", "value": "12.2 ± 0.9", "unit": "µg/mL"}, {"measurement": "Inhibitory rate, soluble", "setting": "S. sanguis 10556; vs control", "value": 53, "unit": "%"}]}]}
